# What was measured:
# GDP-tubulin = assay: Critical concentration determination of tubulin assembly; format: biochemical; details: Taxoid concentration 10 μM; 37° C., PME buffer, 4% DMSO
# Protocol: Critical Concentration Determination. The critical concentration of tubulin in the presence of 10 μM Taxol or Taxol analog was determined from assembly experiments performed at 37° C. with GDP-tubulin in PME buffer (100 mM PIPES, 2 mM MgSO4, 1 mM EGTA, pH=6.90) containing 4% DMSO. The extent of assembly was measured at different tubulin concentrations (0.5-6 μM) by light scattering (apparent absorption at 350 nm). Critical concentrations were calculated from the x-intercepts of plots of apparent A350 nm VS. tubulin concentration.
# [1] = tested on: Taxol binding site on crosslinked microtubules (polymerized tubulin); assay: Competition binding with fluorescent Taxol N-AB-PT; details: for Inhibit binding F-Taxol: 10 μM Taxol or Taxoid, 5 μM N-AB-PT, 5 μM crosslinked microtubules
# Protocol: Competition Binding Experiments. The relative affinities of Taxol and derivatives for polymerized tubulin were assessed by competition assays. Crosslinked microtubules were prepared in glycerol assembly buffer (10 mM phosphate, 1 mM EGTA, 0.1 mM GTP 3.4 M glycerol, pH 6.9) as described by Andreu and Barasoain. Prior to use, the crosslinked microtubules were dialyzed against PME buffer for 16-18 hr. Crosslinked microtubules (5 μM) and the fluorescent Taxol derivative N-AB-PT (15, 5 μM) in PME buffer were incubated for 20 min at room temperature with 10 μM of Taxol or the Taxoid. The fluorescence emission intensity at 412 nm of each sample was recorded using a Jobin-Yvon Horiba Fluoromax-3 spectrofluorometer in a 2 mm×10 mm quartz cell (1ex=320 nm) and compared to the emission intensity of the system in the absence of competitor.
# For the fall competition experiment, microtubules, N-AB-PT and varying concentrations of Taxol or 13b (0-30 μM) were treated in the same manner and their emission intensities were measured. The full competition experiment was repeated using pure tubulin assembled by N-AB-PT and identical results were obtained (data not shown).
# PC-3 prostate cell line = assay: Cytotoxicity against PC3 prostate cancer cell line; details: for IC50(cp)/IC50(tx) PC3: ratio of compound IC50 to Taxol IC50, PC3
# [2] = tested on: A2780 ovarian cancer cell line; assay: Cytotoxicity against A2780 ovarian cancer cell line; details: for IC50(cp)/IC50(tx) A2780: ratio of compound IC50 to Taxol IC50, A2780; for Cytotoxicity (IC50, μg/ml) A2780: Example 2, A2780
# purified tubulin = details: for EC50: read-out: ED50, Tb polymerization, Tubulin concentration 5 μM
smiles,measurement,setting,value
CC(=O)OC1C(=O)C2(C)C(O)CC3OCC34OC(=O)CCCOc3ccccc3C(NC(=O)c3ccccc3)C(O)C(=O)OC3CC(O)(C(OC(=O)c5ccccc5)C42)C(C)(C)C1=C3C (stereo not drawn) [Compound 14b],Critical Tb conc.,GDP-tubulin,1.3 ± 0.33 µM
same,Inhibit binding F-Taxol,[1],7%
same,"cytotoxicity against PC3 in words, compared with PTX/Taxol",PC-3 prostate cell line,slightly less potent
same,IC50(cp)/IC50(tx) PC3,PC-3 prostate cell line,3.3
same,"cytotoxicity against A2780 in words, compared with PTX/Taxol or related analogs",[2]; A2780,slightly less potent
same,IC50(cp)/IC50(tx) A2780,[2],1.2
same,EC50,purified tubulin,830 ± 190 nM
CC(=O)O[C@H]1C(=O)[C@@]2(C)[C@@H]3[C@H](OC(=O)c4ccccc4)[C@]4(O)C[C@H](OC(=O)[C@H](O)[C@@H](NC(=O)c5ccccc5)c5cccc(c5)OC/C=C\CCC(=O)O[C@]35CO[C@@H]5C[C@@H]2O)C(C)=C1C4(C)C [Compound 15e],"tubulin polymerization activity in words, compared to PTX",purified tubulin,comparable
CC(=O)O[C@H]1C(=O)[C@@]2(C)[C@@H]3[C@H](OC(=O)c4ccccc4)[C@]4(O)C[C@H](OC(=O)[C@H](O)[C@@H](NC(=O)c5ccccc5)c5ccccc5/C=C/CC(=O)O[C@]35CO[C@@H]5C[C@@H]2O)C(C)=C1C4(C)C [Compound 15J],"inhibition of binding of fluorescent taxol, compared with paclitaxel, in words",[1],better than paclitaxel
same,fold more cytotoxicity compared to PTX against PC3,PC-3 prostate cell line; PC3 cell line,2 fold
same,fold more cytotoxicity compared to PTX,"[2]; A2780 cell line, cell line not named",6 fold
same,"tubulin polymerization activity in words, compared to PTX",purified tubulin,superior to PTX
CC(=O)O[C@H]1C(=O)[C@@]2(C)[C@@H]3[C@H](OC(=O)c4ccccc4)[C@]4(O)C[C@H](OC(=O)[C@H](O)[C@@H](NC(=O)c5ccccc5)c5cccc(c5)/C=C\CCC(=O)O[C@]35CO[C@@H]5C[C@@H]2O)C(C)=C1C4(C)C [Compound 15f],"tubulin polymerization activity in words, compared to PTX",purified tubulin,comparable
CC(=O)O[C@H]1C(=O)[C@@]2(C)[C@@H]3[C@H](OC(=O)c4ccccc4)[C@]4(O)C[C@H](OC(=O)[C@H](O)[C@@H](NC(=O)c5ccccc5)c5cccc(c5)CCCCC(=O)O[C@]35CO[C@@H]5C[C@@H]2O)C(C)=C1C4(C)C [Compound 16f],"cytotoxicity against A2780 in words, compared with PTX/Taxol or related analogs",[2]; A2780,much less than the unsaturated 15e and 15f
C=CC(=O)O[C@@]12CO[C@@H]1C[C@H](O)[C@@]1(C)C(=O)[C@H](OC(C)=O)C3=C(C)[C@@H](OC(=O)[C@H](O)[C@@H](NC(=O)c4ccccc4)c4ccccc4O/C=C\C)C[C@@](O)([C@@H](OC(=O)c4ccccc4)C12)C3(C)C (stereo partly drawn) [Compound 12b],"cytotoxicity against PC3 in words, compared with PTX/Taxol",PC-3 prostate cell line,over two orders of magnitude less cytotoxic
same,IC50(cp)/IC50(tx) PC3,PC-3 prostate cell line,150
same,"cytotoxicity against A2780 in words, compared with PTX/Taxol or related analogs",[2]; A2780,over three orders of magnitude less cytotoxic
same,IC50(cp)/IC50(tx) A2780,[2],1190
same,EC50,purified tubulin,1020 ± 370 nM
O=C1/C=C/COc2cccc(c2)[C@H](NC(=O)c2ccccc2)[C@@H](O)C(=O)OC2CC3CC(CO1)C(OC(=O)c1ccccc1)C(C3)C2 (stereo partly drawn) [Compound 20b],"cytotoxicity against A2780 in words, compared with PTX/Taxol or related analogs",[2]; A2780,less active than 18 and 19
same,"Cytotoxicity (IC50, μg/ml) A2780",[2],>100 µg/mL
CC(=O)O[C@H]1C(=O)[C@@]2(C)[C@@H]3[C@H](OC(=O)c4ccccc4)[C@]4(O)C[C@H](OC(=O)[C@H](O)[C@@H](NC(=O)c5ccccc5)c5ccccc5OCCCC(=O)O[C@]35CO[C@@H]5C[C@@H]2O)C(C)=C1C4(C)C [Compound 16b],"inhibition of binding of fluorescent taxol, compared with paclitaxel, in words",[1],better than paclitaxel
same,"cytotoxicity against PC3 in words, compared with PTX/Taxol",PC-3 prostate cell line,more or less equal cytotoxicity
same,"cytotoxicity against A2780 in words, compared with PTX/Taxol or related analogs",[2]; A2780,more or less equal cytotoxicity
same,"tubulin polymerization activity in words, compared to PTX",purified tubulin,superior to PTX
CC(=O)O[C@H]1C(=O)[C@@]2(C)[C@@H]3[C@H](OC(=O)c4ccccc4)[C@]4(O)C[C@H](OC(=O)[C@H](O)[C@@H](NC(=O)c5ccccc5)c5ccccc5C/C=C\C(=O)O[C@]35CO[C@@H]5C[C@@H]2O)C(C)=C1C4(C)C [Compound 13a],Critical Tb conc.,GDP-tubulin,0.53 ± 0.07 µM
same,Inhibit binding F-Taxol,[1],72%
same,"cytotoxicity against PC3 in words, compared with PTX/Taxol",PC-3 prostate cell line,slightly more cytotoxic than Taxol
same,IC50(cp)/IC50(tx) PC3,PC-3 prostate cell line,0.69
same,"cytotoxicity against A2780 in words, compared with PTX/Taxol or related analogs",[2]; A2780,approximately twenty times more potent than Taxol
same,fold more potent than previous best analog 15,[2]; A2780,approximately 300 fold
same,IC50(cp)/IC50(tx) A2780,[2],0.045
same,EC50,purified tubulin,300 ± 90 nM
C=CCCC(=O)OC12COC1CC(O)C1(C)C(=O)C(OC(C)=O)C3=C(C)C(OC(=O)C(O)C(NC(=O)c4ccccc4)c4cccc(C=C)c4)CC(O)(C(OC(=O)c4ccccc4)C21)C3(C)C (stereo not drawn) [Compound 13h],"cytotoxicity against A2780 in words, compared with PTX/Taxol or related analogs",[2]; A2780,better cytotoxicites than their macrocyclic counter parts
CC(=O)O[C@H]1C(=O)[C@@]2(C)[C@@H]3[C@H](OC(=O)c4ccccc4)[C@]4(O)C[C@H](OC(=O)[C@H](O)[C@@H](NC(=O)c5ccccc5)c5cccc(c5)OCCCCCC(=O)O[C@]35CO[C@@H]5C[C@@H]2O)C(C)=C1C4(C)C [Compound 16e],"cytotoxicity against A2780 in words, compared with PTX/Taxol or related analogs",[2]; A2780,much less than the unsaturated 15e and 15f
CC(=O)O[C@H]1C(=O)[C@@]2(C)[C@@H]3[C@H](OC(=O)c4ccccc4)[C@]4(O)C[C@H](OC(=O)[C@H](O)[C@@H](NC(=O)c5ccccc5)c5ccccc5OC/C=C/C(=O)O[C@]35CO[C@@H]5C[C@@H]2O)C(C)=C1C4(C)C [Compound 15b],"inhibition of binding of fluorescent taxol, compared with paclitaxel, in words",[1],better than paclitaxel
same,"competition experiment with fluorescent Taxol, compared with Taxol/PTX","[1]; N-AB-PT 5 μM, increasing competitor (0-30 μM), FIG. 14",identical in all respect to PTX
same,"cytotoxicity against PC3 in words, compared with PTX/Taxol",PC-3 prostate cell line,two fold more cytotoxicity than PTX
same,"cytotoxicity against A2780 in words, compared with PTX/Taxol or related analogs",[2]; A2780,more or less equal cytotoxicity
same,"tubulin polymerization activity in words, compared to PTX",purified tubulin,superior to PTX
CC(=O)O[C@H]1C(=O)[C@@]2(C)[C@@H]3[C@H](OC(=O)c4ccccc4)[C@]4(O)C[C@H](OC(=O)[C@H](O)[C@@H](NC(=O)c5ccccc5)c5ccccc5OCCCCC(=O)O[C@]35CO[C@@H]5C[C@@H]2O)C(C)=C1C4(C)C [Compound 16c],"cytotoxicity against PC3 in words, compared with PTX/Taxol",PC-3 prostate cell line,more or less equal cytotoxicity
same,"cytotoxicity against A2780 in words, compared with PTX/Taxol or related analogs",[2]; A2780,more or less equal cytotoxicity
"CC(=O)O[C@H]1C(=O)[C@@]2(C)[C@H]([C@H](OC(=O)c3ccccc3)[C@]3(O)C[C@H](OC(=O)[C@H](O)[C@@H](NC(=O)c4ccccc4)c4ccccc4)C(C)=C1C3(C)C)[C@]1(OC(C)=O)CO[C@@H]1C[C@@H]2O [Taxol, Paclitaxel]",Critical Tb conc.,GDP-tubulin,1.8 ± 0.30 µM
same,Inhibit binding F-Taxol,[1],26%
same,"Cytotoxicity (IC50, μg/ml) A2780",[2],0.02 µg/mL
same,EC50,purified tubulin,500 ± 140 nM
C=CCOc1ccccc1C(NC(=O)c1ccccc1)C(O)C(=O)OC1CC2(O)C(OC(=O)c3ccccc3)C3C4(OC(=O)C=C)COC4CC(O)C3(C)C(=O)C(OC(C)=O)C(=C1C)C2(C)C (stereo not drawn) [Compound 13c],"cytotoxicity against PC3 in words, compared with PTX/Taxol",PC-3 prostate cell line,almost inactive
same,"cytotoxicity against A2780 in words, compared with PTX/Taxol or related analogs",[2]; A2780,almost inactive
C=CCCC(=O)OC12COC1CC(O)C1(C)C(=O)C(OC(C)=O)C3=C(C)C(OC(=O)C(O)C(NC(=O)c4ccccc4)c4ccccc4OCC=C)CC(O)(C(OC(=O)c4ccccc4)C21)C3(C)C (stereo not drawn) [Compound 13i],"cytotoxicity against A2780 in words, compared with PTX/Taxol or related analogs",[2]; A2780,better cytotoxicites than their macrocyclic counter parts
CC(=O)O[C@H]1C(=O)[C@@]2(C)[C@@H]3[C@H](OC(=O)c4ccccc4)[C@]4(O)C[C@H](OC(=O)[C@H](O)[C@@H](NC(=O)c5ccccc5)c5ccccc5OCC/C=C/C(=O)O[C@]35CO[C@@H]5C[C@@H]2O)C(C)=C1C4(C)C [Compound 15c],"cytotoxicity against PC3 in words, compared with PTX/Taxol",PC-3 prostate cell line,more or less equal cytotoxicity
same,"cytotoxicity against A2780 in words, compared with PTX/Taxol or related analogs",[2]; A2780,more or less equal cytotoxicity

# Reference: patent publication US7312240B2, “Conformationally constrained paclitaxel analogs and their use as anticancer and anti-Alzheimers agents” (Virginia Tech Intellectual Properties, Inc., priority 2004, dated 2007)
